Measurements published in BindingDB's records for patent US12404295 (Idorsia Pharmaceuticals, 2025).

Target: Galectin-3 (Homo sapiens, UniProt P17931)
Assay: Competitive Binding Assay
Protocol: The inhibitory activity of compounds is determined in competitive binding assays. This spectrophotometric assay measures the binding of biotinylated human Gal-3 (hGal-3) or human Gal-1 (hGal-1), respectively, to a microplate-adsorbed glycoprotein, asialofetuin (ASF).Briefly, compounds are serially diluted in DMSO (working dilutions). […] Finally, 25 μL/well of ABTS substrate is added.

Galectin-3, sequence (P17931 whole entry): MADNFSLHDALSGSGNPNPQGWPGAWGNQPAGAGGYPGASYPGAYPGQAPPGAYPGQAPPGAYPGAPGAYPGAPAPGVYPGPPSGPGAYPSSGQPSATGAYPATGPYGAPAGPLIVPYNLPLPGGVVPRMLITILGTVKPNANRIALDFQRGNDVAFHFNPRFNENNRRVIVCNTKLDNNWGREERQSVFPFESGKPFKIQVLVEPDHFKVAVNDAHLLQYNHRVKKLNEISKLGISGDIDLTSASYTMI

Row | SMILES | IC50
1 | Cc1nc(C(S[C@@H]2O[C@H](CO)[C@H](O)[C@H](n3cc(-c4cc(F)c(F)c(F)c4)nn3)[C@H]2O)C(C)(C)O)c(C)s1 (stereo partly specified) [US12404295, Example 2.31.123.] | 550 nM
2 | Cc1nc([C@@H](S[C@@H]2O[C@H](CO)[C@H](O)[C@H](n3cc(-c4cc(F)c(F)c(F)c4)nn3)[C@H]2O)C(C)(C)O)c(C)s1 [US12404295, Example 2.31.123R.] | 280 nM
3 | Cc1nc([C@H](S[C@@H]2O[C@H](CO)[C@H](O)[C@H](n3cc(-c4cc(F)c(F)c(F)c4)nn3)[C@H]2O)C(C)(C)O)c(C)s1 [US12404295, Example 2.31.123S.] | 4700 nM
4 | OC[C@H]1O[C@@H](SC(c2ncccc2C(F)(F)F)C2(O)CC(F)(F)C2)[C@H](O)[C@@H](n2cc(-c3cc(F)c(F)c(F)c3)nn2)[C@H]1O (stereo partly specified) [US12404295, Example 2.35.125.] | 320 nM
5 | OC[C@H]1O[C@@H](S[C@H](c2ncccc2C(F)(F)F)C2(O)CC(F)(F)C2)[C@H](O)[C@@H](n2cc(-c3cc(F)c(F)c(F)c3)nn2)[C@H]1O [US12404295, Example 2.35.125R.] | 100 nM
6 | CC1(C)CC(O)(C(S[C@@H]2O[C@H](CO)[C@H](O)[C@H](n3cc(-c4cc(F)c(F)c(F)c4)nn3)[C@H]2O)c2ccccc2C(F)(F)F)CC(C)(C)O1 (stereo partly specified) [US12404295, Example 2.42.102.] | 380 nM
7 | CC1(C)CC(O)(C(S[C@@H]2O[C@H](CO)[C@H](O)[C@H](n3cc(-c4cc(F)c(F)c(F)c4)nn3)[C@H]2O)c2ccccc2C(F)(F)F)CCO1 (stereo partly specified) [US12404295, Example 2.43.102.] | 120 nM
8 | CC1(C)C[C@@](O)([C@H](S[C@@H]2O[C@H](CO)[C@H](O)[C@H](n3cc(-c4cc(F)c(F)c(F)c4)nn3)[C@H]2O)c2ccccc2C(F)(F)F)CCO1 [US12404295, Example 2.43.102RR.] | 290 nM
9 | CC1(C)C[C@](O)([C@H](S[C@@H]2O[C@H](CO)[C@H](O)[C@H](n3cc(-c4cc(F)c(F)c(F)c4)nn3)[C@H]2O)c2ccccc2C(F)(F)F)CCO1 [US12404295, Example 2.43.102RS.] | 40 nM
10 | CC1(C)C[C@](O)([C@@H](S[C@@H]2O[C@H](CO)[C@H](O)[C@H](n3cc(-c4cc(F)c(F)c(F)c4)nn3)[C@H]2O)c2ccccc2C(F)(F)F)CCO1 [US12404295, Example 2.43.102SS.] | 3920 nM
11 | Cc1ccccc1[C@H](S[C@@H]1O[C@H](CO)[C@H](O)[C@H](n2cc(-c3cc(F)c(F)c(F)c3)nn2)[C@H]1O)[C@@]1(O)CCOC(C)(C)C1 [US12404295, Example 2.43.112SR.] | 4900 nM
12 | Cc1ccccc1[C@H](S[C@@H]1O[C@H](CO)[C@H](O)[C@H](n2cc(-c3cc(F)c(F)c(F)c3)nn2)[C@H]1O)[C@]1(O)CCOC(C)(C)C1 [US12404295, Example 2.43.112SS.] | 7300 nM
13 | CO[C@@H]1[C@@H](n2cc(-c3cc(F)c(F)c(F)c3)nn2)[C@@H](O)[C@@H](CO)O[C@H]1S[C@H](c1ncccc1C)[C@]1(O)CCOC(C)(C)C1 [US12404295, Example 2.43.126RS.I.] | 40 nM
14 | OC[C@H]1O[C@@H](S[C@H](c2ccccc2C2CC2)C2(O)CCC(F)(F)CC2)[C@H](O)[C@@H](n2cc(-c3cc(F)c(F)c(F)c3)nn2)[C@H]1O [US12404295, Example 2.44.106R.*] | 60 nM
15 | OC[C@H]1O[C@@H](S[C@@H](c2ccccc2C2CC2)C2(O)CCC(F)(F)CC2)[C@H](O)[C@@H](n2cc(-c3cc(F)c(F)c(F)c3)nn2)[C@H]1O [US12404295, Example 2.44.106S.*] | 930 nM
16 | OC[C@H]1O[C@@H](SC(c2cccc(Cl)c2Cl)C2(O)CCC(F)(F)CC2)[C@H](O)[C@@H](n2cc(-c3cc(F)c(F)c(F)c3)nn2)[C@H]1O (stereo partly specified) [US12404295, Example 2.44.113.] | 360 nM
17 | CC(C)Cc1c(C(S[C@@H]2O[C@H](CO)[C@H](O)[C@H](n3cc(-c4cc(F)c(F)c(F)c4)nn3)[C@H]2O)C2(O)CCC(F)(F)CC2)noc1C1CC1 (stereo partly specified) [US12404295, Example 2.44.131.] | 110 nM

More lines, in order of falling IC50, values ahead:

Row | IC50 | SMILES
18 | 57500 nM | OC[C@H]1O[C@@H](S[C@@H](c2cccc(Cl)c2Cl)C2(O)CCC(F)(F)CC2)[C@H](O)[C@@H](n2cc(-c3cc(F)c(F)c(F)c3)nn2)[C@H]1O [US12404295, Example 2.44.113S.]
19 | 7820 nM | CC1(C)CC(O)([C@@H](S[C@@H]2O[C@H](CO)[C@H](O)[C@H](n3cc(-c4cc(F)c(F)c(F)c4)nn3)[C@H]2O)c2ccccc2C(F)(F)F)CC(C)(C)O1 [US12404295, Example 2.42.102S.]
20 | 3900 nM | CC1(C)C[C@@](O)([C@@H](S[C@@H]2O[C@H](CO)[C@H](O)[C@H](n3cc(-c4cc(F)c(F)c(F)c4)nn3)[C@H]2O)c2ccccc2C(F)(F)F)CCO1 [US12404295, Example 2.43.102SR.]
21 | 3000 nM | OC[C@H]1O[C@@H](S[C@@H](c2ncccc2C(F)(F)F)C2(O)CC(F)(F)C2)[C@H](O)[C@@H](n2cc(-c3cc(F)c(F)c(F)c3)nn2)[C@H]1O [US12404295, Example 2.35.125S.]
22 | 1500 nM | Cc1ccccc1[C@@H](S[C@@H]1O[C@H](CO)[C@H](O)[C@H](n2cc(-c3cc(F)c(F)c(F)c3)nn2)[C@H]1O)[C@@]1(O)CCOC(C)(C)C1 [US12404295, Example 2.43.112RR.]
23 | 800 nM | OC[C@H]1O[C@@H](S[C@H](c2cccc(Cl)c2Cl)C2(O)CCC(F)(F)CC2)[C@H](O)[C@@H](n2cc(-c3cc(F)c(F)c(F)c3)nn2)[C@H]1O [US12404295, Example 2.44.113R.]
24 | 160 nM | CO[C@@H]1[C@@H](n2cc(-c3cc(F)c(F)c(F)c3)nn2)[C@@H](O)[C@@H](CO)O[C@H]1SC(c1ncccc1C)C1(O)CCOC(C)(C)C1 (stereo partly specified) [US12404295, Example 2.43.126.I.]
25 | 130 nM | Cc1ccccc1[C@@H](S[C@@H]1O[C@H](CO)[C@H](O)[C@H](n2cc(-c3cc(F)c(F)c(F)c3)nn2)[C@H]1O)[C@]1(O)CCOC(C)(C)C1 [US12404295, Example 2.43.112RS.]
26 | 90 nM | CC1(C)CC(O)([C@H](S[C@@H]2O[C@H](CO)[C@H](O)[C@H](n3cc(-c4cc(F)c(F)c(F)c4)nn3)[C@H]2O)c2ccccc2C(F)(F)F)CC(C)(C)O1 [US12404295, Example 2.42.102R.]
